From ChEMBL document CHEMBL1145709, “Seven New Polyacetylene Derivatives, Showing Both Potent Metamorphosis-Inducing Activity in Ascidian Larvae and Antifouling Activity Against Barnacle Larvae, from the Marine Sponge Callyspongia truncata” (1997)
Converted amounts (≈) assume the structure as drawn.

How the values were obtained:
Amphibalanus amphitrite = assay: Antifouling activity against Balanus amphitrite larvae; type: functional; conditions: for EC50: Amphibalanus amphitrite, read-out: ED50 (the source's name)
Halocynthia roretzi = assay: Induction of metamorphosis in ascidian Halocynthia roretzi; type: functional; conditions: for EC50: Halocynthia roretzi, read-out: ED50 (the source's name)

| Compound | EC50 (Halocynthia roretzi) [µg/mL] | EC50 (Amphibalanus amphitrite) [µg/mL] | ED100 (Amphibalanus amphitrite) [µg/mL] | ED100 (Halocynthia roretzi) [µg/mL] |
| --- | --- | --- | --- | --- |
| C#CC#CCCCC#CC#C/C=C\CCCC/C=C\C#C [CALLYPENTAYNE] | – | 0.25 (≈ 0.918 µM) | – | – |
| C#C/C=C\CCCC/C=C\C#CC#CCCCC#CC#C[C@H](COS(=O)(=O)[O-])OS(=O)(=O)[O-].[Na+].[Na+] [CALLYSPONGIN A] | 3.9 | 0.13 | – | – |
| C#C/C=C\CCCC/C=C\C#CC#CCCCC#CC#C[C@@H](O)COS(=O)(=O)[O-].[Na+] [CALLYSPONGIN B] | – | – | 0.25 | 4.1 |
| C#C/C=C\CCCC#CC#CCCCCCC/C=C\C#C [CALLYTETRAYNE] | 30 (≈ 109 µM) | 0.25 (≈ 0.904 µM) | – | – |
| C#C/C=C\CCCC/C=C\C#CC#CC(O)CCC#CC#CC(O)CO (centres undefined) [CALLYTRIOL A] | 0.43 (≈ 1.23 µM) | 1.3 (≈ 3.73 µM) | – | – |
| C#C/C=C\CCCC(O)/C=C\C#CC#CCCCC#CC#CC(O)CO (centres undefined) [CALLYTRIOL B] | 0.63 (≈ 1.81 µM) | 1.3 (≈ 3.73 µM) | – | – |
| C#C/C=C\C(O)CCC/C=C\C#CC#CCCCC#CC#CC(O)CO (centres undefined) [CALLYTRIOL C] | 0.24 (≈ 0.689 µM) | 0.13 (≈ 0.373 µM) | – | – |

Further lines, with some results ahead:

| EC50 (Halocynthia roretzi) [µg/mL] | Compound | EC50 (Amphibalanus amphitrite) [µg/mL] | ED100 (Amphibalanus amphitrite) [µg/mL] | ED100 (Halocynthia roretzi) [µg/mL] |
| --- | --- | --- | --- | --- |
| 0.38 (≈ 1.09 µM) | C#C/C=C/C(O)CCC/C=C\C#CC#CCCCC#CC#CC(O)CO (centres undefined) [CALLYTRIOL D] | 1.3 (≈ 3.73 µM) | – | – |
| 0.63 (≈ 1.81 µM) | C#C/C=C\CCCC(O)/C=C/C#CC#CCCCC#CC#CC(O)CO (centres undefined) [CALLYTRIOL E] | 0.13 (≈ 0.373 µM) | – | – |
| 4.5 (≈ 13.5 µM) | C#C/C=C\CCCC/C=C\C#CC#CCCCC#CC#C[C@@H](O)CO [SIPHONODIOL] | 0.25 (≈ 0.752 µM) | – | – |
